Experimental data: paper PMC5224920, “Assessing the mechanism and therapeutic potential of modulators of the human Mediator complex-associated protein kinases” (eLife, 2016)

Tested on: 12 single or co-culture in vitro tissue models of primary cells
Experiment: Culture/co-culture cell model panel, extracellular biomarkers (DiscoveRx); as to CCL2/MCP-1: reference of the scale not given here; as to CD141/Thrombomodulin: reference of the scale not given here; as to CD142/Tissue Factor: reference of the scale not given here; as to CXCL8/IL-8: reference of the scale not given here; as to CXCL9/MIG: reference of the scale not given here; as to M-CSF: reference of the scale not given here; as to SRB: reference of the scale not given here
Format: cell-based, human
[1] = /HDFNo unstimulated fibroblasts, 1.00E0 nM
[2] = /HDFNo unstimulated fibroblasts, 1.00E1 nM
[3] = /HDFNo unstimulated fibroblasts, 1.00E2 nM
[4] = /HDFNo unstimulated fibroblasts, 1.00E3 nM
[5] = /HDFNo unstimulated fibroblasts, 1.00E4 nM

## Cn1ncc2cc(-c3cnc(N)c(Cl)c3N3CCC4(CCNC4=O)CC3)ccc21 [CMPD 3]
3C, 1.00E0 nM
  CCL2/MCP-1: 0.030
  CD54/ICAM-1: -0.007
  CD87/uPAR: -0.138
  CD106/VCAM-1: 0.033
  CD141/Thrombomodulin: 0.044
  CD142/Tissue Factor: 0.040
  CXCL8/IL-8: 0.00749
  CXCL9/MIG: 0.008
  HLA-DR: -0.007
  Proliferation: -0.065
  SRB: -0.049
3C, 1.00E1 nM
  CCL2/MCP-1: -0.022
  CD54/ICAM-1: -0.036
  CD87/uPAR: -0.247
  CD106/VCAM-1: 0.039
  CD141/Thrombomodulin: 0.072
  CD142/Tissue Factor: 0.133
  CXCL8/IL-8: -0.095
  CXCL9/MIG: -0.00373
  HLA-DR: -0.076
  Proliferation: -0.054
  SRB: -0.076
3C, 1.00E2 nM
  CCL2/MCP-1: -0.124
  CD54/ICAM-1: -0.048
  CD87/uPAR: -0.349
  CD106/VCAM-1: 0.034
  CD141/Thrombomodulin: 0.056
  CD142/Tissue Factor: 0.139
  CXCL8/IL-8: -0.180
  CXCL9/MIG: -0.007
  HLA-DR: -0.144
  Proliferation: -0.088
  SRB: -0.094
3C, 1.00E3 nM
  CCL2/MCP-1: -0.168
  CD54/ICAM-1: -0.045
  CD87/uPAR: -0.370
  CD106/VCAM-1: 0.037
  CD141/Thrombomodulin: 0.050
  CD142/Tissue Factor: 0.150
  CXCL8/IL-8: -0.301
  CXCL9/MIG: -0.026
  HLA-DR: -0.148
  Proliferation: -0.102
  SRB: -0.099
3C, 1.00E4 nM
  CCL2/MCP-1: -0.253
  CD54/ICAM-1: -0.033
  CD87/uPAR: -0.407
  CD106/VCAM-1: 0.036
  CD141/Thrombomodulin: 0.036
  CD142/Tissue Factor: 0.224
  CXCL8/IL-8: -0.302
  CXCL9/MIG: -0.020
  HLA-DR: -0.278
  Proliferation: -0.404
  SRB: -0.222
/HDF3CT, 1.00E0 nM
  CCL2/MCP-1: -0.010
  CD54/ICAM-1: -0.008
  CD106/VCAM-1: 0.026
  CXCL8/IL-8: -0.039
  CXCL9/MIG: 0.020
  CXCL10/IP-10: 0.003
  Collagen I: 0.036
  M-CSF: 0.008
  MMP-1: 0.097
  PAI-I: 0.039
  SRB: 0.007
  TIMP-2: 0.070
/HDF3CT, 1.00E1 nM
  CCL2/MCP-1: -0.048
  CD54/ICAM-1: -0.062
  CD106/VCAM-1: 0.0026
  CXCL8/IL-8: -0.028
  CXCL9/MIG: 0.010
  CXCL10/IP-10: 0.017
  Collagen I: 0.021
  M-CSF: -0.050
  MMP-1: 0.095
  PAI-I: -0.027
  SRB: -0.007
  TIMP-2: 0.045
/HDF3CT, 1.00E2 nM
  CCL2/MCP-1: -0.069
  CD54/ICAM-1: -0.067
  CD106/VCAM-1: 0.015
  CXCL8/IL-8: -0.099
  CXCL9/MIG: -0.022
  CXCL10/IP-10: 0.012
  Collagen I: 0.00367
  M-CSF: -0.024
  MMP-1: 0.086
  PAI-I: -0.074
  SRB: -0.023
  TIMP-2: 0.070
/HDF3CT, 1.00E3 nM
  CCL2/MCP-1: -0.111
  CD54/ICAM-1: -0.061
  CD106/VCAM-1: 0.021
  CXCL8/IL-8: -0.189
  CXCL9/MIG: -0.040
  CXCL10/IP-10: 0.00333
  Collagen I: 0.027
  M-CSF: -0.00149
  MMP-1: 0.040
  PAI-I: -0.123
  SRB: 0.00334
  TIMP-2: 0.107
/HDF3CT, 1.00E4 nM
  CCL2/MCP-1: -0.053
  CD54/ICAM-1: -0.081
  CD106/VCAM-1: 0.009
  CXCL8/IL-8: -0.144
  CXCL9/MIG: -0.049
  CXCL10/IP-10: -0.00029
  Collagen I: 0.010
  M-CSF: -0.092
  MMP-1: 0.107
  PAI-I: -0.208
  SRB: -0.230
  TIMP-2: 0.271
[1]
  CXCL8/IL-8: 0.059
  CXCL9/MIG: 0.119
  CXCL10/IP-10: 0.034
  CXCL11/I-TAC: 0.074
  EGFR: 0.022
  M-CSF: 0.066
  MMP-1: 0.081
  PAI-I: 0.044
  Proliferation_72hr: -0.013
  SRB: 0.039
  TIMP-1: 0.047
  TIMP-2: 0.100
[2]
  CXCL8/IL-8: 0.037
  CXCL9/MIG: 0.058
  CXCL10/IP-10: 0.054
  CXCL11/I-TAC: -0.002
  EGFR: 0.009
  M-CSF: 0.048
  MMP-1: 0.040
  PAI-I: -0.042
  Proliferation_72hr: 0.000939
  SRB: 0.011
  TIMP-1: 0.040
  TIMP-2: 0.045
[3]
  CXCL8/IL-8: 0.041
  CXCL9/MIG: 0.091
  CXCL10/IP-10: 0.056
  CXCL11/I-TAC: -0.021
  EGFR: 0.019
  M-CSF: 0.020
  MMP-1: 0.030
  PAI-I: -0.011
  Proliferation_72hr: 0.020
  SRB: -0.014
  TIMP-1: -0.015
  TIMP-2: 0.091
[4]
  CXCL8/IL-8: 0.013
  CXCL9/MIG: 0.053
  CXCL10/IP-10: 0.0016
  CXCL11/I-TAC: -0.010
  EGFR: 0.012
  M-CSF: -0.000464
  MMP-1: 0.050
  PAI-I: -0.034
  Proliferation_72hr: 0.048
  SRB: -0.021
  TIMP-1: 0.010
  TIMP-2: 0.080
[5]
  CXCL8/IL-8: 0.011
  CXCL9/MIG: -0.074
  CXCL10/IP-10: -0.076
  CXCL11/I-TAC: 0.023
  EGFR: 0.045
  M-CSF: 0.010
  MMP-1: 0.054
  PAI-I: -0.028
  Proliferation_72hr: 0.002
  SRB: -0.00187
  TIMP-1: -0.007
  TIMP-2: 0.202
/HDFNo, 1.00E0 nM
  CCL2/MCP-1: 0.028
  CD54/ICAM-1: 0.066
  CD106/VCAM-1: 0.114
  Collagen I: 0.082
  Collagen III: 0.065
/HDFNo, 1.00E1 nM
  CCL2/MCP-1: 0.027
  CD54/ICAM-1: 0.074
  CD106/VCAM-1: 0.048
  Collagen I: 0.041
  Collagen III: 0.032
/HDFNo, 1.00E2 nM
  CCL2/MCP-1: 0.042
  CD54/ICAM-1: -0.013
  CD106/VCAM-1: 0.065
  Collagen I: 0.061
  Collagen III: 0.079
/HDFNo, 1.00E3 nM
  CCL2/MCP-1: 0.025
  CD54/ICAM-1: 0.014
  CD106/VCAM-1: 0.026
  Collagen I: 0.099
  Collagen III: 0.101
